The molecules below were run against T1, human orexin type 2 receptor (Homo sapiens, UniProt O43614) (assay: Measurement of orexin type 2 receptor agonist activity (calcium indicator fluorescence, CHO cells forcibly expressing human OX2 receptor)). Conditions: compound at 3 μM; 0% = DMSO, 100% = orexin A (human) 10 nM.
T1 construct: expressed in transfected cells
T1 sequence (O43614 1-444): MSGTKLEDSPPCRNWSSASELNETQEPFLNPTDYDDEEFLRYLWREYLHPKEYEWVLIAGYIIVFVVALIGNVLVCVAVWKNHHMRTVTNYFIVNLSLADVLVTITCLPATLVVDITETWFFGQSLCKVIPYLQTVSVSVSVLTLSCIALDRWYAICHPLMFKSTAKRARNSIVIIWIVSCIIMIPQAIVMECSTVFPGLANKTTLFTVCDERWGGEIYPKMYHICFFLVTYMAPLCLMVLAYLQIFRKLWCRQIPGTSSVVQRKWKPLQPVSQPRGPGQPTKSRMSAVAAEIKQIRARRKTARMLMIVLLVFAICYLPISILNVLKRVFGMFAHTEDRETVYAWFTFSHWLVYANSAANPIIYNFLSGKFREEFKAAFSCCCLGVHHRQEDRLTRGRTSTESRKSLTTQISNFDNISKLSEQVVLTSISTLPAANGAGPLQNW
Type: cell-based
Method in brief: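 Agonist response normalised between vehicle (0%) and orexin A at 10 nM final (100%), from kinetic Fluo-4 calcium signals recorded for about 2 min after compound addition. Cells: stable human OX2R CHO clone, dye-loaded 30 min at 37 °C plus 30 min at room temperature.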

| SMILES | OX2R agonist activity (3 μM, %) |
| --- | --- |
| CS(=O)(=O)N[C@@H]1[C@H](Cc2cccc(-c3cccc(Cl)c3)c2F)N(C(=O)C2CCO2)CC1(F)F (stereo partly drawn) [Example 259, N-[(2S,3R)-2-[(3′-chloro-2-fluoro[1,1′-biphenyl]-3-yl)methyl]-4,4-difluoro-1-(oxetane-2-carbonyl)pyrrolidin-3-yl]methanesulfonamide] | 96% |
| CS(=O)(=O)N[C@@H]1[C@H](Cc2cccc(-c3cccc(Cl)c3F)c2F)N(C(=O)C2CCO2)CC1(F)F (stereo partly drawn) [Example 263, N-[(2S,3R)-2-[(3′-chloro-2,2′-difluoro[1,1′-biphenyl]-3-yl)methyl]-4,4-difluoro-1-(oxetane-2-carbonyl)pyrrolidin-3-yl]methanesulfonamide] | 103% |
| CS(=O)(=O)N[C@@H]1[C@H](Cc2cccc(-c3cccc(Cl)c3F)c2F)N(C(=O)C2CCO2)CC1(F)F (stereo partly drawn) [Example 264, N-[(2S,3R)-2-[(3′-chloro-2,2′-difluoro[1,1′-biphenyl]-3-yl)methyl]-4,4-difluoro-1-(oxetane-2-carbonyl)pyrrolidin-3-yl]methanesulfonamide] | 98% |
| CS(=O)(=O)N[C@@H]1[C@H](Cc2cccc(-c3cc(F)cc(Cl)c3)c2F)N(C(=O)C2CCO2)CC1(F)F (stereo partly drawn) [Example 265, N-[(2S,3R)-2-[(3′-chloro-2,5′-difluoro[1,1′-biphenyl]-3-yl)methyl]-4,4-difluoro-1-(oxetane-2-carbonyl)pyrrolidin-3-yl]methanesulfonamide] | 96% |
| CS(=O)(=O)N[C@@H]1[C@H](Cc2cccc(-c3cc(F)cc(Cl)c3)c2F)N(C(=O)C2CCO2)CC1(F)F (stereo partly drawn) [Example 266, N-[(2S,3R)-2-[(3′-chloro-2,5′-difluoro[1,1′-biphenyl]-3-yl)methyl]-4,4-difluoro-1-(oxetane-2-carbonyl)pyrrolidin-3-yl]methanesulfonamide] | 83% |
| CCS(=O)(=O)N[C@@H]1[C@H](Cc2cccc(-c3cccc(Cl)c3)c2F)N(C(=O)C2CCO2)CC1(F)F (stereo partly drawn) [Example 267, N-[(2S,3R)-2-[(3′-chloro-2-fluoro[1,1′-biphenyl]-3-yl)methyl]-4,4-difluoro-1-(oxetane-2-carbonyl)pyrrolidin-3-yl]ethanesulfonamide] | 92% |
| CCS(=O)(=O)N[C@@H]1[C@H](Cc2cccc(-c3cccc(Cl)c3)c2F)N(C(=O)C2CCO2)CC1(F)F (stereo partly drawn) [Example 268, N-[(2S,3R)-2-[(3′-chloro-2-fluoro[1,1′-biphenyl]-3-yl)methyl]-4,4-difluoro-1-(oxetane-2-carbonyl)pyrrolidin-3-yl]ethanesulfonamide] | 94% |
| CCS(=O)(=O)N[C@@H]1[C@H](Cc2cccc(-c3cccc(F)c3)c2F)N(C(=O)C2(O)CCC2)CC1(F)F [Example 273, N-[(2S,3R)-2-[(2,3′-difluoro[1,1′-biphenyl]-3-yl)methyl]-4,4-difluoro-1-(1-hydroxycyclobutane-1-carbonyl)pyrrolidin-3-yl]ethanesulfonamide] | 83% |
| CCS(=O)(=O)N[C@@H]1[C@H](Cc2cccc(-c3cccc(F)c3F)c2F)N(C(=O)C2(O)CCC2)CC1(F)F [Example 274, N-{(2S,3R)-4,4-difluoro-1-(1-hydroxycyclobutane-1-carbonyl)-2-[(2,2′,3′-trifluoro[1,1′-biphenyl]-3-yl)methyl]pyrrolidin-3-yl}ethanesulfonamide] | 93% |
| CCS(=O)(=O)N[C@@H]1[C@H](Cc2cccc(-c3cccc(C)c3)c2F)N(C(=O)C2(O)CCC2)CC1(F)F [Example 275, N-[(2S,3R)-4,4-difluoro-2-[(2-fluoro-3′-methyl[1,1′-biphenyl]-3-yl)methyl]-1-(1-hydroxycyclobutane-1-carbonyl)pyrrolidin-3-yl]ethanesulfonamide] | 85% |
| CCS(=O)(=O)N[C@@H]1[C@H](Cc2cccc(-c3cccc(C)c3F)c2F)N(C(=O)C2(O)CCC2)CC1(F)F [Example 276, N-[(2S,3R)-2-[(2,2′-difluoro-3′-methyl[1,1′-biphenyl]-3-yl)methyl]-4,4-difluoro-1-(1-hydroxycyclobutane-1-carbonyl)pyrrolidin-3-yl]ethanesulfonamide] | 88% |
| CCS(=O)(=O)N[C@@H]1[C@H](Cc2cccc(-c3cccc(C)c3)c2F)N(C(=O)C2CCO2)CC1(F)F (stereo partly drawn) [Example 277, N-[(2S,3R)-4,4-difluoro-2-[(2-fluoro-3′-methyl[1,1′-biphenyl]-3-yl)methyl]-1-(oxetane-2-carbonyl)pyrrolidin-3-yl]ethanesulfonamide] | 94% |
| CCS(=O)(=O)N[C@@H]1[C@H](Cc2cccc(-c3cccc(C)c3)c2F)N(C(=O)N2CCC2)CC1(F)F [Example 285, N-{(2S,3R)-1-(azetidine-1-carbonyl)-4,4-difluoro-2-[(2-fluoro-3′-methyl[1,1′-biphenyl]-3-yl)methyl]pyrrolidin-3-yl}ethanesulfonamdie] | 98% |

More lines, now with the values ahead:

| OX2R agonist activity (3 μM, %) | SMILES |
| --- | --- |
| 96% | CCCC(=O)N1CC(F)(F)[C@H](NS(=O)(=O)CC)[C@@H]1Cc1cccc(-c2cccc(F)c2)c1F [Example 257, N-{(2S,3R)-1-butanoyl-2-[(2,3′-difluoro[1,1′-biphenyl]-3-yl)methyl]-4,4-difluoropyrrolidin-3-yl}ethanesulfonamide] |
| 88% | CCS(=O)(=O)N[C@@H]1[C@H](Cc2cccc(-c3cc(F)cc(F)c3)c2F)N(C(=O)C2(O)CCC2)CC1(F)F [Example 272, N-{(2S,3R)-4,4-difluoro-1-(1-hydroxycyclobutane-1-carbonyl)-2-[(2,3′,5′-trifluoro[1,1′-biphenyl]-3-yl)methyl]pyrrolidin-3-yl}ethanesulfonamide] |
| 96% | CCS(=O)(=O)N[C@@H]1[C@H](Cc2cccc(-c3cc(F)cc(F)c3)c2F)N(C(=O)N(C)C)CC1(F)F [Example 282, (2S,3R)-3-[(ethanesulfonyl)amino]-4,4-difluoro-N,N-dimethyl-2-[(2,3′,5′-trifluoro[1,1′-biphenyl]-3-yl)methyl]pyrrolidine-1-carboxamide] |
| 93% | CCS(=O)(=O)N[C@@H]1[C@H](Cc2cccc(-c3cc(F)cc(F)c3)c2F)N(C(=O)N2CCC2)CC1(F)F [Example 283, N-{(2S,3R)-1-(azetidine-1-carbonyl)-4,4-difluoro-2-[(2,3′,5′-trifluoro[1,1′-biphenyl]-3-yl)methyl]pyrrolidin-3-yl}ethanesulfonamide] |
| 92% | CCS(=O)(=O)N[C@@H]1[C@H](Cc2cccc(-c3cccc(C)c3)c2F)N(C(=O)N(C)C)CC1(F)F [Example 284, (2S,3R)-3-[(ethanesulfonyl)amino]-4,4-difluoro-2-[(2-fluoro-3′-methyl[1,1′-biphenyl]-3-yl)methyl]-N,N-dimethylpyrrolidine-1-carboxamide] |
| 94% | CCS(=O)(=O)N[C@@H]1[C@H](Cc2cccc(-c3cccc(F)c3)c2F)N(C(=O)N2CCC2)CC1(F)F [Example 287, N-{(2S,3R)-1-(azetidine-1-carbonyl)-2-[(2,3′-difluoro[1,1′-biphenyl]-3-yl)methyl]-4,4-difluoropyrrolidin-3-yl}ethanesulfonamide] |

Reference: patent US20230040770A1, “HETEROCYCLIC COMPOUND AND USE THEREOF” (TAKEDA PHARMACEUTICAL COMPANY LIMITED, priority 2019, published 2023)
